Measured values reported in ChEMBL document CHEMBL5726327, “Kinase inhibitors” (2017).

Target: Glycogen synthase kinase-3 alpha (Homo sapiens, UniProt P49840)
Assay: Enzyme Inhibition Assay: The inhibitory activities of compounds of the invention against the GSK 3α enzyme isoform (Invitrogen), are evaluated by determining the level of activation/phosphorylation of the target peptide. The GSK3-α protein (500 ng/mL, 2.5 μL) is mixed with the test compound (2.5 μL at either 4 μg/mL, 0.4 μg/mL, 0.04 μg/mL, or 0.004 μg/mL) for 2 hr at RT. The FRET peptide (8 μM, 2.5 μL), which is a phosphorylation target for GSK3α, and ATP (40 μM, 2.5 μL) are then added to the enzyme/compound mixture and the resulting mixture incubated for 1 hr. Development reagent (protease, 5 μL) is added for 1 hr prior to detection in a fluorescence microplate reader (Varioskan® Flash, ThermoFisher Scientific).In all cases, the site-specific protease cleaves non-phosphorylated peptide only and eliminates the FRET signal. Phosphorylation levels of each reaction are calculated using the ratio of coumarin emission (donor) over fluorescein emission (acceptor), for which high ratios indicate […] phosphorylation levels.

Chain of Glycogen synthase kinase-3 alpha (P49840 whole entry, canonical isoform): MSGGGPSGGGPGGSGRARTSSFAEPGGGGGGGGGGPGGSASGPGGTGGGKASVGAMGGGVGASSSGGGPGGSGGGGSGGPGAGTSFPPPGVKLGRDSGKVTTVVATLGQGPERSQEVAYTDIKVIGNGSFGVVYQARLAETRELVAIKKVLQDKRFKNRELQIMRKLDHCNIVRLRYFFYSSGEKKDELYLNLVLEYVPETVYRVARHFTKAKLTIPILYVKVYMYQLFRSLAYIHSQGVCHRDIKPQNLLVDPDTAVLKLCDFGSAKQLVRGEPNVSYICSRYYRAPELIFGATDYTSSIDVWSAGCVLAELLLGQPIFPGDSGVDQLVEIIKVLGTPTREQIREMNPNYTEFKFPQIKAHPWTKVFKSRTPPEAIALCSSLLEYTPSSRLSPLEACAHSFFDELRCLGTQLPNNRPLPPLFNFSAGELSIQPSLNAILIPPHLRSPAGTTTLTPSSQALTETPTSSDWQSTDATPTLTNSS

Row | Compound | IC50
1 | COc1cc(Nc2nccc(Oc3ccc(NC(=O)Nc4cc(C(C)(C)C)nn4-c4ccc(C)cc4)c(Cl)c3Cl)n2)cc(S(=O)(=O)C2CC2)c1 | > 10000 nM
2 | COc1cc(N=S(C)(C)=O)cc(Nc2nccc(Oc3ccc(NC(=O)Nc4cc(C(C)C)nn4-c4ccc(C)cc4)c4ccccc34)n2)c1 | 824 nM
